In US20240024273A1, “TOPICAL ADMINISTRATION OF 2-(DIETHYLAMINO)ETHYL 2-(4-ISOBUTYLPHENYL)PROPRIONATE FOR TREATMENT OF DISEASES” (TECHFIELDS PHARMA CO., LTD., priority 2020, published 2024):

Tests used:
Format in all cases: in vivo, human
[1] = tested on: osteoarthritis of the knee; assay: Second Phase 2 study: WOMAC difficulty performing daily activities (functional ability) subscale score; conditions: Week 12
Source text: This is a Phase 2, multicenter, randomized, double blind (within dose), Ibuprofen-placebo controlled, parallel group, dose range finding study to evaluate the efficacy, safety, and PK of 2-(diethylamino)ethyl 2-(4-isobutylphenyl)propionate spray in adult subjects with clinically symptomatic OA of the knee. For subjects with bilateral knee pain, both knees will be treated, but the most symptomatic knee (ie, the most painful knee as measured by the Western Ontario and McMaster University Osteoarthritis Index [WOMAC® 3.1] pain subscale score at Screening) will be designated as the target knee for efficacy analyses. For subjects with unilateral knee pain, only the symptomatic (target) knee will be treated.
The VAS version of the WOMAC will be used for the Primary and Secondary Efficacy Endpoints. Efficacy endpoints will be assessed at Screening and Baseline (Day 1) and at the Week 2, Week 4, Week 8, and Week 12/EOS visits.
(§1) 4.9.2. Secondary Efficacy Endpoints: • 1. Change from Baseline in the WOMAC (VAS) pain subscale score for the target knee at 2, 8, and 12 weeks of treatment; • 2. Change from Baseline in the WOMAC (VAS) stiffness subscale scores for the target knee and WOMAC (VAS) functional ability subscale scores at 2, 4, 8, and 12 weeks of treatment; • 3. Change from Baseline in the overall WOMAC (VAS) score at 2, 4, 8, and 12 weeks of treatment; • 4. Subject's global assessment of disease status of the target knee at 2, 4, 8, and 12 weeks of treatment; • 5. Subject's global assessment of response to therapy of the target knee at 2, 4, 8, and 12 weeks of treatment; • 6. Amount of rescue medication (acetaminophen) consumed per day for target knee pain.
The Secondary Efficacy Endpoints, change from Baseline in the WOMAC subscale scores for pain, stiffness, and functional ability, and overall WOMAC score at 2, 4, 8, and 12 weeks of treatment, will be analyzed using the same methods as for the Primary Efficacy Endpoint.

[2] = tested on: osteoarthritis of the knee; assay: Second Phase 2 study: Subject's Global Assessment of Disease Status (SGADS)
Source text: as §1

[3] = tested on: osteoarthritis of the knee; assay: Second Phase 2 study: Investigator's global assessment of disease status (IGADS); conditions: Week 12; for IGADS: Good and Very good / IGADS: Poor and Very Poor / IGADS: fair: first 130 subjects; for IGADS, Good and Very good / IGADS, Poor and Very Poor / IGADS, fair: all subjects
[4] = 17.5 mg/knee BID (n = 19), first 130 subjects
[5] = all subjects, 4.375 mg/knee BID, n = 49
[6] = all subjects, 8.75 mg/knee BID, n = 54
[7] = all subjects, 17.5 mg/knee BID, n = 52
[8] = 17.5 mg/knee BID, Week 12, first 130 subjects
[9] = Week 12, 4.375 mg/knee BID (n = 23), first 130 subjects
[10] = Week 12, 8.75 mg/knee BID (n = 24), first 130 subjects
[11] = Week 12, 17.5 mg/knee BID (n = 19), first 130 subjects
[12] = all subjects, 4.375 mg/knee BID, n = 49, Week 12
[13] = all subjects, 8.75 mg/knee BID, n = 54, Week 12
[14] = all subjects, 17.5 mg/knee BID, n = 52, Week 12

CCN(CC)CCOC(=O)C(C)c1ccc(CC(C)C)cc1 (stereo not shown) [2-(diethylamino)ethyl 2-(4-isobutylphenyl)propionate]
WOMAC Difficulty Performing Daily Activities Subscale Scores, Different from placebo (LS Mean) [1, 4]: −19.1 mm
WOMAC Difficulty Performing Daily Activities Subscale Scores, Week 12 (LS Mean) [1, 4]: 26.7 mm
WOMAC Difficulty Performing Daily Activities Subscale Scores, % of improvement from Oral Ibuprofen [1, 5]: −1.3%
WOMAC Difficulty Performing Daily Activities Subscale Scores, % of improvement from Placebo [1, 5]: −5.6%
WOMAC Difficulty Performing Daily Activities Subscale Scores, % of improvement from baseline [1, 5]: −42.8%
WOMAC Difficulty Performing Daily Activities Subscale Scores, Changes from Baseline (LS Mean) [1, 5]: −25.4 mm
WOMAC Difficulty Performing Daily Activities Subscale Scores, Week 12 (LS Mean) [1, 5]: 33.9 mm
WOMAC Difficulty Performing Daily Activities Subscale Scores, % of improvement from Oral Ibuprofen [1, 6]: −4.6%
WOMAC Difficulty Performing Daily Activities Subscale Scores, % of improvement from Placebo [1, 6]: −8.9%
WOMAC Difficulty Performing Daily Activities Subscale Scores, % of improvement from baseline [1, 6]: −46.1%
WOMAC Difficulty Performing Daily Activities Subscale Scores, Changes from Baseline (LS Mean) [1, 6]: −27.9 mm
WOMAC Difficulty Performing Daily Activities Subscale Scores, Different from oral ibuprofen (LS Mean) [1, 6]: −2.7 mm
WOMAC Difficulty Performing Daily Activities Subscale Scores, Different from placebo (LS Mean) [1, 6]: −6.0 mm
WOMAC Difficulty Performing Daily Activities Subscale Scores, Week 12 (LS Mean) [1, 6]: 32.6 mm
WOMAC Difficulty Performing Daily Activities Subscale Scores, % of improvement from Oral Ibuprofen [1, 7]: −11.0%
WOMAC Difficulty Performing Daily Activities Subscale Scores, % of improvement from Placebo [1, 7]: −15.3%
WOMAC Difficulty Performing Daily Activities Subscale Scores, % of improvement from baseline [1, 7]: −52.5%
WOMAC Difficulty Performing Daily Activities Subscale Scores, Changes from Baseline (LS Mean) [1, 7]: −31.4 mm
WOMAC Difficulty Performing Daily Activities Subscale Scores, Different from placebo (LS Mean) [1, 7]: −9.5 mm
WOMAC Difficulty Performing Daily Activities Subscale Scores, Week 12 (LS Mean) [1, 7]: 28.3 mm
SGADS, difference from oral ibuprofen [2, 8]: −14.2 mm
SGADS, difference from placebo [2, 8]: −18.6 mm
Subject’s Global Assessment of Disease Status Scores, Baseline (LS Mean) ([2]; 4.375 mg/knee BID (n = 23), first 130 subjects): 64.8 mm
Subject’s Global Assessment of Disease Status Scores, Baseline (LS Mean) ([2]; 8.75 mg/knee BID (n = 24), first 130 subjects): 67.2 mm
Subject’s Global Assessment of Disease Status Scores, Baseline (LS Mean) [2, 4]: 69.3 mm
Subject’s Global Assessment of Disease Status Scores, % of improvement from Oral Ibuprofen [2, 9]: −12.2%
Subject’s Global Assessment of Disease Status Scores, % of improvement from baseline [2, 9]: −50.6%
Subject’s Global Assessment of Disease Status Scores, % of improvement from placebo [2, 9]: −14.2%
Subject’s Global Assessment of Disease Status Scores, Changes from Baseline (LS Mean) [2, 9]: −32.8 mm
Subject’s Global Assessment of Disease Status Scores, Different from oral ibuprofen (LS Mean) [2, 9]: −3.9 mm
Subject’s Global Assessment of Disease Status Scores, Different from placebo (LS Mean) [2, 9]: −8.3 mm
Subject’s Global Assessment of Disease Status Scores, Week 12 (LS Mean) [2, 9]: 32.0 mm
Subject’s Global Assessment of Disease Status Scores, % of improvement from Oral Ibuprofen [2, 10]: −11.8%
Subject’s Global Assessment of Disease Status Scores, % of improvement from baseline [2, 10]: −50.7%
Subject’s Global Assessment of Disease Status Scores, % of improvement from placebo [2, 10]: −14.3%
Subject’s Global Assessment of Disease Status Scores, Changes from Baseline (LS Mean) [2, 10]: −34.1 mm
Subject’s Global Assessment of Disease Status Scores, Different from oral ibuprofen (LS Mean) [2, 10]: −5.2 mm
Subject’s Global Assessment of Disease Status Scores, Different from placebo (LS Mean) [2, 10]: −9.6 mm
Subject’s Global Assessment of Disease Status Scores, Week 12 (LS Mean) [2, 10]: 33.1 mm
Subject’s Global Assessment of Disease Status Scores, % of improvement from Oral Ibuprofen [2, 11]: −23.8%
Subject’s Global Assessment of Disease Status Scores, % of improvement from baseline [2, 11]: −62.2%
Subject’s Global Assessment of Disease Status Scores, % of improvement from placebo [2, 11]: −25.8%
Subject’s Global Assessment of Disease Status Scores, Changes from Baseline (LS Mean) [2, 11]: −43.1 mm
Subject’s Global Assessment of Disease Status Scores, Different from oral ibuprofen (LS Mean) [2, 11]: −14.2 mm
Subject’s Global Assessment of Disease Status Scores, Different from placebo (LS Mean) [2, 11]: −18.6 mm
Subject’s Global Assessment of Disease Status Scores, Week 12 (LS Mean) [2, 11]: 26.2 mm
Subject's Global Assessment of Disease Status Scores, % of improvement from Oral Ibuprofen [2, 12]: −5.3%
Subject's Global Assessment of Disease Status Scores, % of improvement from Placebo [2, 12]: −6.0%
Subject's Global Assessment of Disease Status Scores, % of improvement from baseline [2, 12]: −51.9%
Subject's Global Assessment of Disease Status Scores, Changes from Baseline (LS Mean) [2, 12]: −34.7 mm
Subject's Global Assessment of Disease Status Scores, Week 12 (LS Mean) [2, 12]: 32.1 mm
Subject's Global Assessment of Disease Status Scores, % of improvement from Oral Ibuprofen [2, 13]: −6.4%
Subject's Global Assessment of Disease Status Scores, % of improvement from Placebo [2, 13]: −7.1%
Subject's Global Assessment of Disease Status Scores, % of improvement from baseline [2, 13]: −53.0%
Subject's Global Assessment of Disease Status Scores, Changes from Baseline (LS Mean) [2, 13]: −36.6 mm
Subject's Global Assessment of Disease Status Scores, Different from oral ibuprofen (LS Mean) [2, 13]: −3.4 mm
Subject's Global Assessment of Disease Status Scores, Different from placebo (LS Mean) [2, 13]: −6.2 mm
Subject's Global Assessment of Disease Status Scores, Week 12 (LS Mean) [2, 13]: 32.4 mm
Subject's Global Assessment of Disease Status Scores, % of improvement from Oral Ibuprofen [2, 14]: −10.6%
Subject's Global Assessment of Disease Status Scores, % of improvement from Placebo [2, 14]: −11.3%
Subject's Global Assessment of Disease Status Scores, % of improvement from baseline [2, 14]: −57.2%
Subject's Global Assessment of Disease Status Scores, Changes from Baseline (LS Mean) [2, 14]: −38.3 mm
Subject's Global Assessment of Disease Status Scores, Different from placebo (LS Mean) [2, 14]: −7.9 mm
Subject's Global Assessment of Disease Status Scores, Week 12 (LS Mean) [2, 14]: 28.7 mm
IGADS: Good and Very good ([3]; 4.375 mg/knee BID (n = 23)): 43.5%
IGADS: Poor and Very Poor ([3]; 4.375 mg/knee BID (n = 23)): 4.3%
IGADS: fair ([3]; 4.375 mg/knee BID (n = 23)): 53.2%
IGADS: Good and Very good ([3]; 8.75 mg/knee BID (n = 24)): 41.7%
IGADS: Poor and Very Poor ([3]; 8.75 mg/knee BID (n = 24)): 4.2%
IGADS: fair ([3]; 8.75 mg/knee BID (n = 24)): 54.2%
IGADS: Good and Very good ([3]; 17.5 mg/knee BID (n = 19)): 68.4%
IGADS: Poor and Very Poor ([3]; 17.5 mg/knee BID (n = 19)): 0%
IGADS: fair ([3]; 17.5 mg/knee BID (n = 19)): 31.6%
IGADS, Good and Very good ([3]; 4.375 mg/knee BID, n = 49): 40.8%
IGADS, Poor and Very Poor ([3]; 4.375 mg/knee BID, n = 49): 8.2%
IGADS, fair ([3]; 4.375 mg/knee BID, n = 49): 51.0%
IGADS, Good and Very good ([3]; 8.75 mg/knee BID, n = 54): 48.1%
IGADS, Poor and Very Poor ([3]; 8.75 mg/knee BID, n = 54): 7.4%
IGADS, fair ([3]; 8.75 mg/knee BID, n = 54): 44.4%
IGADS, Good and Very good ([3]; 17.5 mg/knee BID, n = 52): 63.5%
IGADS, Poor and Very Poor ([3]; 17.5 mg/knee BID, n = 52): 1.9%
IGADS, fair ([3]; 17.5 mg/knee BID, n = 52): 34.6%
